From PMC7955127, “Preclinical small molecule WEHI-7326 overcomes drug resistance and elicits response in patient-derived xenograft models of human treatment-refractory tumors” (Cell Death & Disease, 2021)

Tests used:
LoVo = test: Cell growth inhibition assay, LoVo; format: cell-based; settings: Homo sapiens, colon carcinoma, 72 h viability assay, CellTiterGlo, mean of 3 ± SEM, read-out: IC50 (inhibition of cellular proliferation)
Protocol: (§1) Cells were plated at a density of between 500 to 5000 cells per well for adherent cell lines depending on doubling time, and 15,000 cells per well for lymphoblastic leukemia cell lines, in a 96-well plate in 200 μl of growth media. Plates were incubated overnight at 37 °C before adding the inhibitors. Inhibitors were serially diluted from the stock solutions in complete medium and added to the cells. […] Cell viability was assessed by the AlamarBlue (Invitrogen) or CellTiterBlue/Glo (Promega) method according to manufacturer’s instructions. The curve fits and IC50 values were generated in PRISM (GraphPad, San Diego, CA).

LIM 2537 = test: Cell growth inhibition assay, LIM 2537; format: cell-based; settings: Homo sapiens; LIM 2537, colon carcinoma; 72 h viability assay, CellTiterGlo; mean of 3 ± SEM; read-out: IC50 (inhibition of cellular proliferation)
Protocol: as §1

HepG2 cytotoxic assay = format: cell-based; settings: human; HepG2 cells, cell viability after 48 h
Protocol: a Chemical structures of the triazine-based anti-mitotics used in this study. b Dose-dependent antiproliferative activity of key derivatives and comparison with commonly used anti-mitotics in SW480 cell line: Data shown is cell viability (as measured by CellTiterGlo) after 72 h relative to untreated control cells. Shown is mean of 3 independent experiments performed in duplicate +/- SEM. c Dose-dependent cell cycle analysis of key derivatives of WEHI-7326 development in SW480 cell line. Data are presented as percentage of cells in G2/M or subG0 after 24 h incubation with titration of inhibitors as assessed by PI staining and flow cytometry. Mean average of 3 experiments +/- SEM. d Comparison of IC50 and EC50 values of triazine compounds and anti-mitotic drugs in SW480 cell line: inhibition of cellular proliferation and cell cycle arrest in G2/M. IC50 and EC50 values are the mean of 3 independent experiments run in duplicates +/- SEM (n.d. = not determined). e HepG2 cytotoxic assay: cell viability assay after 48 h, normalised to 0.4% DMSO (100% viability) and 2 μM bortezomib (0% viability). The data is the mean average of 2 experiments +/- SD.

AH406 LUSC PDX = test: LUSC PDX model AH406; format: in vivo, NOD-SCID-IL2Rγc–/– mice; settings: WEHI-7326 20 mg/kg i.v. biweekly, docetaxel 10 mg/kg i.p. once
Protocol: LUSC PDXs were generated as described in[25]. PDXs at passage 4 were defrosted and washed with PBS before counting. 200,000 to 500,000 cells were then injected in a 50:50 PBS:Matrigel mix into the flanks of NOD-SCID-IL2Rγc–/– male mice. Tumors were measured twice weekly with calipers and treatment started when tumors were between 70–120 mm^3. Mice were assigned to treatment groups based on average tumor volume per group. Mice were culled when tumors reached a volume of 600 mm^3.

134197 HGSOC PDX = test: HGSOC PDX model 134197; format: in vivo, NSG mice; settings: 134197 cisplatin-resistant PDX; 20 mg/kg i.v. biweekly, 6 weeks
Protocol: (§2) Two to three mm ovarian tumor fragments were subcutaneously engrafted in the left flank of NSG mice and monitored by physical palpation for tumor growth and engraftment. Engrafted tumors were measured twice a week using digital Vernier calipers and maximum tumor diameter + perpendicular tumor length were digitally recorded into the Study Director software (v 3.0/4.0 StudyLog). Tumor volume was calculated automatically (tumor volume (mm^3) = 0.5236 x [larger diameter (mm) x smaller diameter (mm)^2]). Mice were randomized to treatment once their tumor volume reach 180–300 mm^3 and tumor measurements were performed twice a week up to 120 days or when the tumor volume reaches 700 mm^3.
(§3) Time to progressive disease (PD): Defined as the time (in days) from beginning of treatment to an increase in average tumor volume of >20% from the nadir (taken as the smallest average tumor volume recorded since treatment started or 200 mm^3 if nadir was <200 mm^3 as lesions smaller than this are difficult to measure with accuracy). Median time to harvest (TTH): Defined as the time (in days) from the beginning of treatment to day of harvest at 700 mm^3 and the median TTH was calculated and plotted using Kaplan-Meier curves. Based on ref. [27]. […]

134111 HGSOC PDX = test: HGSOC post-chemo PDX model 134111; format: in vivo, NSG mice; settings: 134111 post-taxane, cisplatin-refractory PDX; 20 mg/kg i.v. twice a week, 6 weeks
Protocol: as §2, §3

[1] = test system: U87MG-(Δ2–7) (glioblastoma) xenograft; test: U87MG-(Δ2–7) tumor xenograft in nude mice; format: in vivo, BALB/c nude mice; settings: U87MG-(Δ2–7) xenograft, i.p. three times weekly
Protocol: Tumor cell lines LIM2537, U87MGΔ2–7EGFR or H1437 were collected by trypsinization, counted and injected at 5 × 10^6 cells/ site subcutaneously on both flanks of BALB/c nude mice. Treatment with vehicle control or WEHI-7326 at given dose was initiated after 5 days. Drug or vehicle (100 μl) was injected intraperitoneally three times weekly. Control group and treatment group consisted of 8 mice each. Tumors were measured twice weekly with calipers. Tumor volumes were estimated using the modified ellipsoid formula V = 1/2 (length × width^2). The experiments were terminated when tumors in the control group started ulcerating or exceeded 17 mm in length, in line with the LICR/DoS Animal Ethics Committee guidelines (11/05 A).

COc1ccc(CNc2nc(NCc3ccc(CN)cc3)nc(NN3CC(=O)NC3=O)n2)cc1 [WEHI-7326]
IC50 (LoVo): 42.2 ± 9.9 nM
IC50 (LIM 2537): 58.9 ± 7.5 nM
IC50 at 48 h (HepG2 cytotoxic assay): > 40000 nM
Median survival (AH406 LUSC PDX): 29 days
Median time to harvest (TTH) (134197 HGSOC PDX): 92 days
Time to progressive disease (PD) (134197 HGSOC PDX): 35 days
Tumor response (134111 HGSOC PDX): ineffective
Tumor growth [1]: effective in reducing tumor growth
